Experimental data: patent US8592435B2, “Nitrogen-containing six-membered aromatic ring derivatives and pharmaceutical products containing the same” (Daiichi Sankyo Company, Limited, priority 2007, dated 2013)

What was measured:
[1] = test system: spinal cord injury (SCI) model; assay: Test Example 7: spinal cord injury (SCI) model in rats; assay type: in vivo, Slc: SD rats; conditions: 1 mg/kg through the tail vein once daily for 10 days, once a week until 5 weeks after surgery
Description: According to the method of Venkata Ramesh Dasari et al. [J Neurotrauma. 2007 February; 24(2):391-410], 9-week-old female Slc: SD rats were used. Animals were anesthetized with pentobarbital and incised along the dorsal midline. After the spinal column was exposed by dorsal midline incision, the 9th thoracic vertebral arch was removed with bone scissors, paying attention not to damage the dura mater. The upper and lower bones were held in place to position the exposed spinal site just under the impactor device (where impact is applied) and then a 200-kdyn force was applied to the site. Tonic extension of the lower limbs by the spinal cord injury was checked.
The test compound used was Example Compound 65, which was administered at a dose of 1 mg/kg. Specifically, the compound was administered through the tail vein once daily for 10 days, starting from 90 min after the surgery. The motor function of lower limb was evaluated by BBB score (Basso D M, Beattie M S, Bresnahan J C: J Neurotrauma. 1995; 12:1-21) once a week until 5 weeks after surgery.

[2] = test system: mixture of human vascular endothelial cells and fibroblasts; assay: Test Example 2: ability to promote angiogenesis (angiogenesis test kit KZ-1000); assay type: cell-based; conditions: Homo sapiens, 216 h; Compound Conc. = 3 μM; lumen length, % of control, day 9; read-out: Promotion of angiogenesis (%)
Outline: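 Co-culture of human endothelial cells and fibroblasts; compound added on days 1, 4 and 7, CD31 immunostaining on day 9. Lumen length quantified from images and expressed as % of untreated control; 120 used as activity threshold.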

[3] = target: T1, chemokine receptor CCR3 (Homo sapiens, UniProt P51677); assay: Affinity to chemokine receptor CCR3; assay type: binding; conditions: at a concentration of 10 μM
T1 sequence (P51677 1-355): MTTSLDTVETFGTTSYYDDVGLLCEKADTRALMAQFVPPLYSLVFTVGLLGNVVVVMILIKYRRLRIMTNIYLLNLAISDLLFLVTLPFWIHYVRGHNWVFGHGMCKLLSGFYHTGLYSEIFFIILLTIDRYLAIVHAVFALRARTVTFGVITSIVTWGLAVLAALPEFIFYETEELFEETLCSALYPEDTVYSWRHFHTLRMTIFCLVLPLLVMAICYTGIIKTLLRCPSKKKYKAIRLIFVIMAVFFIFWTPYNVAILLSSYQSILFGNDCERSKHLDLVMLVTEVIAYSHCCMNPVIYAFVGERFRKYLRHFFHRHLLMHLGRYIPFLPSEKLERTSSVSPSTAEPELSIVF
Description: Although the compounds of the present invention are novel compounds, compounds having a partly similar skeleton are described, for example, in Published Japanese Translation of PCT International Application No. 2003-507456, WO 01/79170 and WO 00/23076.

[4] = test system: spinal cord neurons; assay: Test Example 3: ability to promote the neurite outgrowth of spinal cord neurons; assay type: cell-based, Wistar rats; conditions: Compound Conc. = 0.1 μM; % of control, day 3
Protocol: According to the method of Martin G. Hanson Jr. [J. Neurosci., 1998 Sep. 15; 18(18): 7361-71], the spinal cord region was isolated from 15-day embryos of female Wistar rats and the cells were dispersed using the papain dissociation system. Neurons were collected using 6.8% Metrizamide density gradient and were suspended in 2% FBS+Leibovitz's −15 medium so that the density of the cells will be 2×10^3 cells/well/200 μL. 200 μL of the cell suspension was inoculated on a poly-D-lysine/laminin-coated 96 well plate and the plate was incubated in an incubator at 37° C. Test compounds were added 1 hour after seeding of cells.
On day 3 of the incubation period, neurons were stained with Calcein-AM and the lengths of neurites were determined using IN Cell Analyzer (GE Healthcare Bioscience).
The ability (%) of each test compound to promote neurite outgrowth was calculated from the following equation: The ability to promote neurite outgrowth (%)=[(measurement with a compound of interest)/(measurement of control)]×100
Example Compounds 65, 71, 74, 92, 130 and 135 were used as test compounds and were each added at a concentration of 0.1 μM.
The results are shown in Table 27. bFGF gives a measurement of about 130 in this test.

[5] = test system: hippocampal neurons; assay: Test Example 1: ability to promote axonal outgrowth; assay type: cell-based, Wistar rats; conditions: Hippocampal neuron, 216 h; Compound Conc. = 3 μM; % of control; rat hippocampal neurons, day 9; read-out: Promotion of axonal outgrowth (%)
Outline: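 Embryonic day-18 Wistar rat hippocampal neurons were cultured at 37° C, treated with AraC from day 3, and given compound at 3 μM and 0.3 μM on days 3 and 7. On day 9, GAP-43-stained axons were quantified and expressed as % of control; bFGF-based threshold is 120.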

What does the source list for `Cc1nc(OCC(=O)N(C)C2CCN(Cc3ccccc3)CC2)nc(C)c1N` [Compound 65, 2-(5-amino-4,6-dimethylpyrimidine-2-yloxy)-N-(1-benzylpiperidine-4-yl)-N-methylacetamide]?
motor function of lower limb (BBB score) [1]: highly effective in ameliorating spinal cord injury; activity at 3 µM [2]: 170%; affinity to chemokine receptor CCR3 [3]: 0.0%; Promotion of spinal cord neurite outgrowth (%) [4]: 135%; activity at 3 µM [5]: 134%
